Results as given in ChEMBL document CHEMBL1126797 (J Med Chem, 1993).

Tests used:
DNA topoisomerase 1 [1] = biological target: T1, DNA topoisomerase 1 (Homo sapiens, UniProt P11387); test: Inhibition of Topoisomerase I by cleavage complex formation in human HL-60 cells; assay type: cell-based
T1 sequence (P11387 whole entry): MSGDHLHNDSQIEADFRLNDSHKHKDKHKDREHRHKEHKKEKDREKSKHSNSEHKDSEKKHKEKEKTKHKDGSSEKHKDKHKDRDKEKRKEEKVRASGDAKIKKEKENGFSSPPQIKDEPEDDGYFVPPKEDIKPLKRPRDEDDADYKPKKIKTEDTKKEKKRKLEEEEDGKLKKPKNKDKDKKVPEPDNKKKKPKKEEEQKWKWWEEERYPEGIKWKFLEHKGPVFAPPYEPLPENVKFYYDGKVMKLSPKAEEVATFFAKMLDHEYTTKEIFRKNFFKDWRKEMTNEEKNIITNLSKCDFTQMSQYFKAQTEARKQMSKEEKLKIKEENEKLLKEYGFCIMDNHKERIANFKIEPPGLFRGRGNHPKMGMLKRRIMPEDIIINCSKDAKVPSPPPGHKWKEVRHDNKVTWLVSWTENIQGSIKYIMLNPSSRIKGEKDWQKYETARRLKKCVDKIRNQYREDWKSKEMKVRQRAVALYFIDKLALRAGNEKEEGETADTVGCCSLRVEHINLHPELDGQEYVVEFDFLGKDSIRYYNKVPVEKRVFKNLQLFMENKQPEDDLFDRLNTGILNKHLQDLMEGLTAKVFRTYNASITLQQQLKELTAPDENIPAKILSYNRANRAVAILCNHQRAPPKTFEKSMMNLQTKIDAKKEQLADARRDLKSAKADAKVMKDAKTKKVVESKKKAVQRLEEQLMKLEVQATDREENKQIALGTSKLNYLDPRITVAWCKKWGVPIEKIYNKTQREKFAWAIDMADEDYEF

DNA topoisomerase 1 [2] = biological target: T1, DNA topoisomerase 1; test: Inhibition of Topoisomerase I by cleavage complex formation in intact human HL-60 cells; assay type: cell-based
L1210 [3] = test: Toxic dose in L1210 murine lymphoid leukemia at 20 mg/kg after i.v. drug dosing on hours 1 and 5; NT means not toxic; assay type: toxicity, organism-based; set-up: dose 20 mg/kg, route intravenous; conditions: mouse, in vivo, iv
Mus musculus [4] = test: Number of L1210 mice cured after i.v. drug dosing on hours 1 and 5; assay type: functional
Mus musculus [5] = test: Highest active dose in L1210 lymphoid leukemic mice at range of 1.25-20 mg/kg after i.v. drug dosing on hours 1 and 5; assay type: functional
L1210 [6] = test: Log of initial tumor cell population minus log of tumor cell population at end of treatment after i.v. drug dosing on hours 1 and 5; assay type: functional, Mus musculus
Mus musculus [7] = organism: Mus musculus; test: Percent median survival time of treated leukemic mice compared to control; assay type: functional

Row | SMILES | IC50 (DNA topoisomerase 1 [1]) | further results
1 | CCC1(O)C(=O)OCc2c1cc1n(c2=O)Cc2cc3cc(Br)ccc3nc2-1 (configuration not stated) | 130 nM | –
2 | CC[C@@]1(O)C(=O)OCc2c1cc1n(c2=O)Cc2cc3cc(C)ccc3nc2-1 | 300 nM | –
3 | CCC1(O)C(=O)OCc2c1cc1n(c2=O)Cc2cc3c(NC(=O)CN)c4c(cc3nc2-1)OCO4 (racemic) | 260 nM | IC50 (DNA topoisomerase 1 [2]): > 30000 nM
4 | CCC1(O)C(=O)OCc2c1cc1n(c2=O)Cc2cc3c(OC)cccc3nc2-1 (racemic) | 1600 nM | –
5 | CCC1(O)C(=O)OCc2c1cc1n(c2=O)Cc2cc3c(Cl)c4c(cc3nc2-1)OCO4 (configuration not stated) | 61 nM | –
6 | O=C1OCc2c(cc3n(c2=O)Cc2cc4ccccc4nc2-3)C1(O)CCO (racemic) | 9600 nM | –
7 | CCC(O)(C(=O)O)c1cc2n(c(=O)c1CO)Cc1cc3ccccc3nc1-2 (racemic) | 2000 nM | –
8 | CCC1(O)C(=O)OCc2c1cc1n(c2=O)Cc2cccnc2-1 (racemic) | > 30000 nM | –
9 | CCC1(O)C(=O)OCc2c1cc1n(c2=O)Cc2cc3cc4c(cc3nc2-1)OCCO4 (racemic) | 470 nM | –
10 | CCC1(O)C(=O)OCc2c1cc1n(c2=O)Cc2cc3c(Cl)cccc3nc2-1 (racemic) | 190 nM | –
11 | CC[C@](O)(C(=O)O)c1cc2n(c(=O)c1CO)Cc1cc3c(N)c4c(cc3nc1-2)OCO4 | > 30000 nM | –
12 | CCC1(O)C(=O)OCc2c1cc1n(c2=O)Cc2cc3cc(F)ccc3nc2-1 (configuration not stated) | 370 nM | –
13 | CC[C@@]1(O)C(=O)OCc2c1cc1n(c2=O)Cc2cc3cc(O)ccc3nc2-1 [HYDROXYCAMPTOTHECIN] | 110 nM | –
14 | CC[C@@]1(O)C(=O)OCc2c1cc1n(c2=O)Cc2cc3cc(Cl)ccc3nc2-1 | 140 nM | –
15 | CCC1(O)C(=O)OCc2c1cc1n(c2=O)Cc2cc3cc(C(=O)O)ccc3nc2-1 (configuration not stated) | 1000 nM | –
16 | CC[C@@]1(O)C(=O)OCc2c1cc1n(c2=O)Cc2cc3cc([N+](=O)[O-])ccc3nc2-1 | 640 nM | –
17 | CCC(O)(C(=O)O)c1cc2n(c(=O)c1CO)Cc1cc3c(N)cccc3nc1-2 (racemic) | 13000 nM | –
18 | CCC1(OC(=O)CN)C(=O)OCc2c1cc1n(c2=O)Cc2cc3cc(N)ccc3nc2-1.Cl (racemic) | – | Toxic dose (L1210 [3]): Non-toxic; Cures (Mus musculus [4]): 0; Highest active dose (Mus musculus [5]): 20 mg/kg; KE (L1210 [6]): >5.97; T/C (Mus musculus [7]): 225%
19 | CC[C@@]1(O)C(=O)OCc2c1cc1n(c2=O)Cc2cc3c(O)cccc3nc2-1 | 870 nM | –
20 | CCC1(O)C(=O)OCc2c1cc1n(c2=O)Cc2cc3c(N)cccc3nc2-1 (racemic) [RS-9-Aminocamptothecin] | 440 nM | IC50 (DNA topoisomerase 1 [2]): 840 nM
21 | CCC1(O)C(=O)OCc2c1cc1n(c2=O)Cc2cc3c([N+](=O)[O-])c4c(cc3nc2-1)OCO4 (racemic) | 220 nM | –
